# Test results reported in ChEMBL document CHEMBL1150039, “Dual inhibition of neutral endopeptidase and angiotensin-converting enzyme by N-phosphonomethyl and N-carboxyalkyl dipeptides” (Bioorg Med Chem Lett, 1994).
# Legend:
# [1] = target: Neprilysin (Homo sapiens, UniProt P08473); assay: In vitro inhibitory concentration against neutral endopeptidase
# [2] = target: Angiotensin-converting enzyme (Homo sapiens, UniProt P12821); assay: In vitro inhibitory concentration against angiotensin-converting enzyme; assay type: protein assay
# Angiotensin-converting enzyme, sequence (P12821 whole entry): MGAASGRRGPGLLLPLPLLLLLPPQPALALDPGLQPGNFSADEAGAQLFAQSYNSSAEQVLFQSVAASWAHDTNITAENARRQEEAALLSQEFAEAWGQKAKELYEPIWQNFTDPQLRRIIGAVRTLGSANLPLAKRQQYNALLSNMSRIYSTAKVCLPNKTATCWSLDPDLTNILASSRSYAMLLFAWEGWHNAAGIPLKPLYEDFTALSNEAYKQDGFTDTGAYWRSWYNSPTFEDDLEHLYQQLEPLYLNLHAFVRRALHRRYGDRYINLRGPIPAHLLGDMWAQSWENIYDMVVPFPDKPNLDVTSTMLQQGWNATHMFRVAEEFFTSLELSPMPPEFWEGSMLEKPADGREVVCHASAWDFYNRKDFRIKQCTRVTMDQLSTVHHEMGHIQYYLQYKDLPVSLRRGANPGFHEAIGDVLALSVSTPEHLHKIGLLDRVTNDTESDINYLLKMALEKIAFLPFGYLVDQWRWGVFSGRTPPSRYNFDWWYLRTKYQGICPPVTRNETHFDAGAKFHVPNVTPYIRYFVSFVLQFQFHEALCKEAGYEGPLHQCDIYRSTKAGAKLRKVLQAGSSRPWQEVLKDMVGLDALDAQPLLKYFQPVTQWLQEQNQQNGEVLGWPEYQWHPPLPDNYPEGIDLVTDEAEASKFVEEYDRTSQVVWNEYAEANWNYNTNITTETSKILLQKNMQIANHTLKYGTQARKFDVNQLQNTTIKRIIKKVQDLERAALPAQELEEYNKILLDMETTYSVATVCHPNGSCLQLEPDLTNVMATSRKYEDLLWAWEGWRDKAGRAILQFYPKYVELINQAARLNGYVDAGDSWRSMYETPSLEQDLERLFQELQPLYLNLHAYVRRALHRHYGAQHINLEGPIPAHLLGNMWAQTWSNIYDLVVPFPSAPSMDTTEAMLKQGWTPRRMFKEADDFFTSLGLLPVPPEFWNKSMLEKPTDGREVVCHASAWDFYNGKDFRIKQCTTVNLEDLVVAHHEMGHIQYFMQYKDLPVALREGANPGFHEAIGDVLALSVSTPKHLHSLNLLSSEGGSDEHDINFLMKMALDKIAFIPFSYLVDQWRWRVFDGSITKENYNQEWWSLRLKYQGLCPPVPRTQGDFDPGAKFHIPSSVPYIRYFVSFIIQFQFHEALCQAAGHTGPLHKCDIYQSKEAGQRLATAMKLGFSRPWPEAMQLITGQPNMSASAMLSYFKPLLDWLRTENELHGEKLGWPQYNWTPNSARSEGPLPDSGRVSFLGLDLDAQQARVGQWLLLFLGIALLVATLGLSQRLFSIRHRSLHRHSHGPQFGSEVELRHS
# Neprilysin, sequence (P08473 whole entry): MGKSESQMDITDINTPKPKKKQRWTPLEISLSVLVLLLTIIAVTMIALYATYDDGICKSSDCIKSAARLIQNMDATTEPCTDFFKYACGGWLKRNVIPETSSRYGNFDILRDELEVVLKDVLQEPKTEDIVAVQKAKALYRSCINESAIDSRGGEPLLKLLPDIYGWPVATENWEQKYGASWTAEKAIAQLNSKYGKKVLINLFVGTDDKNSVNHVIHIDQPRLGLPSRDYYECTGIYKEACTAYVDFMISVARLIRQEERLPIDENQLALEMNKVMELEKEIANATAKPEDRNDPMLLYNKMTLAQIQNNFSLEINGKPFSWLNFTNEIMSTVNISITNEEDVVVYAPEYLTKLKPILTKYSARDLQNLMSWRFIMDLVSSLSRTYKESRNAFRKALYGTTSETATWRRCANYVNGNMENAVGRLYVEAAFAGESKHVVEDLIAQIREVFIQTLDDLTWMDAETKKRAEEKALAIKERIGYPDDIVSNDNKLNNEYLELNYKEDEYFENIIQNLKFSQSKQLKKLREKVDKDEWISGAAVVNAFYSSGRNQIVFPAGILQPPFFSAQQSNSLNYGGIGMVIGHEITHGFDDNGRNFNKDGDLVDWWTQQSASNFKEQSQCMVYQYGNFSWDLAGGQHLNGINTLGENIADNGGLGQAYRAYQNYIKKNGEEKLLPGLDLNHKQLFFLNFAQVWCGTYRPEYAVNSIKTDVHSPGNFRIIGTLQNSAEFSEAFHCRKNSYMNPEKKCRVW
IC50 [1],IC50 [2],SMILES
> 1000 nM,> 1000 nM,O=C(O)[C@H](Cc1ccc(-c2ccccc2)cc1)NC(=O)[C@H](Cc1cnc[nH]1)NCP(=O)(O)O
> 1000 nM,> 1000 nM,O=C(O)[C@H](Cc1ccc(-c2ccccc2)cc1)NC(=O)C1(NCP(=O)(O)O)CCCC1
200 nM,65 nM,CC[C@H](C)C(NCC(=O)O)C(=O)N[C@@H](Cc1ccc(-c2ccccc2)cc1)C(=O)O (some centres undefined)
26 nM,100 nM,CC(C)[C@H](NCP(=O)(O)O)C(=O)N[C@@H](CCc1ccccc1)C(=O)O
165 nM,22 nM,CC[C@H](C)C(N[C@@H](C)C(=O)O)C(=O)N[C@@H](Cc1ccc(-c2ccccc2)cc1)C(=O)O (some centres undefined)
282 nM,53 nM,O=C(O)[C@H](Cc1ccc(-c2ccccc2)cc1)NC(=O)[C@H](Cc1ccc2ccccc2c1)NCP(=O)(O)O
4 nM,> 1000 nM,CC(C)[C@H](NCP(=O)(O)O)C(=O)N[C@@H](Cc1ccc(-c2ccccc2)cc1)C(=O)N[C@@H](Cc1ccc(O)cc1)C(=O)O
12 nM,> 1000 nM,CC(C)[C@H](NCP(=O)(O)O)C(=O)N[C@@H](Cc1ccc(-c2ccccc2)cc1)C(=O)N1C[C@H](O)C[C@H]1C(=O)O
> 1000 nM,> 1000 nM,O=C(O)[C@H](Cc1ccc(-c2ccccc2)cc1)NC(=O)[C@H](Cc1ccccc1O)NCP(=O)(O)O
171 nM,44 nM,C[C@H](N[C@@H](Cc1ccccc1)C(=O)N[C@@H](Cc1ccc(-c2ccccc2)cc1)C(=O)O)P(=O)(O)O
> 1000 nM,> 1000 nM,CC(C)(C)[C@H](NCP(=O)(O)O)C(=O)N[C@@H](Cc1ccc(-c2ccccc2)cc1)C(=O)O
> 1000 nM,665 nM,C[C@H](O)[C@H](NCP(=O)(O)O)C(=O)N[C@@H](Cc1ccc(-c2ccccc2)cc1)C(=O)O
34 nM,> 1000 nM,O=C(O)[C@H](Cc1ccc(-c2ccccc2)cc1)NC(=O)[C@@H](NCP(=O)(O)O)C1CCCCC1

# Second part, the compound before the results:
SMILES,IC50 [1],IC50 [2]
CC(C)C[C@H](NCP(=O)(O)O)C(=O)N[C@@H](Cc1ccc(-c2ccccc2)cc1)C(=O)O,356 nM,> 1000 nM
C[C@H](OCc1ccccc1)[C@H](NCP(=O)(O)O)C(=O)N[C@@H](Cc1ccc(-c2ccccc2)cc1)C(=O)O,> 1000 nM,656 nM
COc1ccccc1C[C@H](NCP(=O)(O)O)C(=O)N[C@@H](Cc1ccc(-c2ccccc2)cc1)C(=O)O,> 1000 nM,160 nM
CC(C)Oc1ccc(C[C@H](NC(=O)[C@@H](NCP(=O)(O)O)C(C)C)C(=O)O)cc1,9 nM,92 nM
CC[C@@H](C)[C@H](NCP(=O)(O)O)C(=O)N[C@@H](Cc1ccc(-c2ccccc2)cc1)C(=O)O,2 nM,50 nM
CCCC[C@H](NCP(=O)(O)O)C(=O)N[C@@H](Cc1ccc(-c2ccccc2)cc1)C(=O)O,37 nM,731 nM
O=C(O)[C@H](Cc1ccc(-c2ccccc2)cc1)NC(=O)[C@H](Cc1ccc(O)cc1)NCP(=O)(O)O,226 nM,> 1000 nM
C[C@H](NCP(=O)(O)O)C(=O)N[C@@H](Cc1ccc(-c2ccccc2)cc1)C(=O)O,1000 nM,660 nM
CC(C)[C@H](NCP(=O)(O)O)C(=O)N[C@@H](Cc1ccc(C2CCCCC2)cc1)C(=O)O,35 nM,122 nM
CC(C)[C@H](NCP(=O)(O)O)C(=O)N[C@@H](Cc1ccc(-c2ccccc2)cc1)C(=O)O,3 nM,25 nM
Cc1ccccc1C[C@H](NCP(=O)(O)O)C(=O)N[C@@H](Cc1ccc(-c2ccccc2)cc1)C(=O)O,96 nM,498 nM
C[C@H](c1ccccc1)[C@H](NCP(=O)(O)O)C(=O)N[C@@H](Cc1ccc(-c2ccccc2)cc1)C(=O)O,47 nM,138 nM
CC(C)[C@H](N[C@@H](C)C(=O)O)C(=O)N[C@@H](Cc1ccc(-c2ccccc2)cc1)C(=O)O,735 nM,23 nM
O=C(O)[C@H](Cc1ccc(-c2ccccc2)cc1)NC(=O)[C@H](Cc1ccc(Cl)cc1)NCP(=O)(O)O,338 nM,473 nM
CC(C)[C@H](NCP(=O)(O)O)C(=O)N[C@@H](Cc1c[nH]c2ccccc12)C(=O)O,9 nM,240 nM
O=C(O)[C@H](Cc1ccc(-c2ccccc2)cc1)NC(=O)[C@H](Cc1ccc2c(c1)OCO2)NCP(=O)(O)O,48 nM,147 nM
O=C(O)[C@H](Cc1ccc(-c2ccccc2)cc1)NC(=O)[C@H](Cc1cccs1)NCP(=O)(O)O,73 nM,385 nM
O=C(O)[C@H](Cc1ccc(-c2ccccc2)cc1)NC(=O)[C@H](Cc1ccc(-c2ccccc2)cc1)NCP(=O)(O)O,20 nM,414 nM
O=C(O)[C@H](Cc1ccc(-c2ccccc2)cc1)NC(=O)[C@H](Cc1ccccc1)NCP(=O)(O)O,35 nM,117 nM
